Experimental data: patent US6762188B1, “Pharmaceutically active benzoquinazoline compounds” (SmithKline Beecham Corporation, priority 1990, dated 2004)
pIC50: −log10 of the molar value.

Target: T1, Mammalian Thymidylate Synthase (Homo sapiens, UniProt P04818)
T1 construct: made in house; host or cells: Escherichia coli
Experiment: Thymidylate synthase inhibition, tritium release assay
Assay type: biochemical
Conditions: not given

T1 sequence (P04818 whole entry): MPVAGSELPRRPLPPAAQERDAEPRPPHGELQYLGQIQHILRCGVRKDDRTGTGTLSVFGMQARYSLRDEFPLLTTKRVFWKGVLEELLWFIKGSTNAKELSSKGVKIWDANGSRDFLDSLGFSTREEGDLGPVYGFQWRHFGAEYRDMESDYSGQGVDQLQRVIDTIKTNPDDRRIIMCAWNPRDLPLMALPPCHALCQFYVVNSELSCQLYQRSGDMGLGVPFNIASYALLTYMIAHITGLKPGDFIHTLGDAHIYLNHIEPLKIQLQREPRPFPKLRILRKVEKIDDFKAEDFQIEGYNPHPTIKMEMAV

pIC50	SMILES
> 6.00	Nc1nc(O)c2c(ccc3cc(N)c(Br)cc32)n1 [3,8-Diamino-9-bromobenzo(f)quinazolin-1(2H)-one]
> 6.00	Nc1nc2ccc3cc(Cl)c(Cl)cc3c2c(=O)[nH]1 [3-Amino-8,9-dichlorobenzo(f)quinazolin-1(2H)-one]
3.52 to 6.00	Nc1nc2ccc3cc(F)ccc3c2c(=O)[nH]1 [3-Amino-8-fluorobenzo(f)quinazolin-1(2H)-one]
3.52 to 6.00	Nc1nc2ccc3cc([N+](=O)[O-])c(Br)cc3c2c(=O)[nH]1 [3-Amino-9-bromo-8-nitrobenzo(f)quinazolin-1(2H)-one]
> 6.00	Nc1nc(O)c2c(ccc3ccc(Br)cc32)n1 [3-Amino-9-bromobenzo(f)quinazolin-1(2H)-one]
> 6.00	Nc1nc2ccc3ccc(Cl)cc3c2c(=O)[nH]1 [3-Amino-9-chlorobenzo(f)quinazolin-1(2H)-one]
3.52 to 6.00	CCOc1ccc2ccc3nc(N)[nH]c(=O)c3c2c1 [3-Amino-9-ethoxybenzo(f)quinazolin-1(2H)-one]
> 6.00	C#Cc1ccc2ccc3nc(N)[nH]c(=O)c3c2c1 [3-Amino-9-ethynylbenzo(f)quinazolin-1(2H)-one]
> 6.00	Nc1nc(O)c2c(ccc3ccc(F)cc32)n1 [3-Amino-9-fluorobenzo(f)quinazolin-1(2H)-one]
> 6.00	Nc1nc(O)c2c(ccc3ccc(I)cc32)n1 [3-Amino-9-iodobenzo(f)quinazolin-1(2H)-one]
3.52 to 6.00	COc1ccc2ccc3nc(N)[nH]c(=O)c3c2c1 [3-Amino-9-methoxybenzo(f)quinazolin-1(2H)-one]
> 6.00	Cc1nc2ccc3ccc(S(=O)(=O)Nc4ccc(C(=O)N[C@@H](CCC(=O)O)C(=O)O)cc4)cc3c2c(=O)[nH]1 [N-(4-((1,2-Dihydro-3-methyl-1-oxabenzo(f)quinazolin-9-yl)sulfonamido)benzoyl)-L-glutamic acid]

SMILES	pIC50
Cc1nc2c(c(=O)[nH]1)-c1cc(S(=O)(=O)Cl)ccc1CC2 [1,2,5,6-Tetrahydro-3-methyl-1-oxobenzo(f)quinazoline-9-sulfonylchloride]	3.52 to 6.00
Nc1nc2c(c(=O)[nH]1)-c1ccc(S(N)(=O)=O)cc1CC2 [3-Amino-1,2,5,6-tetrahydro-1-oxobenzo(f)quinazoline-8-sulfonamide]	3.52 to 6.00
Nc1nc(O)c2c(n1)CCc1cc([N+](=O)[O-])ccc1-2 [3-Amino-5,6-dihydro-8-nitro(f)quinazolin-1(2H)-one]	3.52 to 6.00
CN(C)S(=O)(=O)c1ccc2ccc3nc(N)[nH]c(=O)c3c2c1 [3-Amino-N,N-dimethyl-1,2-dihydro-1-oxobenzo(f)quinazoline-9-sulfonamide]	3.52 to 6.00
Nc1nc2ccc3ccc(NS(=O)(=O)c4ccc(C(=O)O)cc4)cc3c2c(=O)[nH]1 [4-(((3-Amino-1,2-dihydro-1-oxobenzo(f)quinazolin-9-yl)amino)sulfonyl)benzoic acid]	> 6.00

Same assay, conditions: Table A; vs. mammalian enzymes; read-out: I50

pIC50	SMILES
3.52 to 6.00	Nc1nc(O)c2c(ccc3c(N)cccc32)n1 [3,7-Diaminobenzo(f)quinazolin-1(2H)-one]
3.52 to 6.00	Nc1cc(N)c2c(ccc3nc(N)[nH]c(=O)c32)c1 [3,8,10-Triaminobenzo(f)quinazolin-1(2H)-one]
3.52 to 6.00	Nc1ccc2c(c1)-c1c(nc(N)[nH]c1=O)CC2 [3,9-Diamino-5,6-dihydrobenzo(f)quinazolin-1(2H)-one]
3.52 to 6.00	Nc1nc(O)c2c(ccc3cccc(N)c32)n1 [3,10-diaminobenzo(f)quinazolin-1(2H)-one]
3.52 to 6.00	CC1(C)Cc2nc(N)nc(O)c2-c2ccccc21 [3-Amino-5,6-dihydro-6,6-dimethylbenzo(f)quinazolin-1(2H)-one]
3.52 to 6.00	Nc1nc(O)c2c(n1)CCc1c(I)cccc1-2 [3-Amino-5,6-dihydro-7-iodobenzo(f)quinazolin-1(2H)-one]
3.52 to 6.00	Nc1nc2c(c(=O)[nH]1)-c1cc(O)ccc1CC2 [3-Amino-5,6-dihydro-9-hydroxybenzo(f)quinazolin-1(2H)-one]
> 6.00	Cc1ccc2c(c1)-c1c(O)nc(N)nc1CC2 [3-Amino-5,6-dihydro-9-methylbenzo(f)quinazolin-1(2H)-one]
3.52 to 6.00	Nc1nc(O)c2c(cc(CO)c3ccccc32)n1 [3-Amino-6-(hydroxymethyl)benzo(f)quinazolin-1(2H)-one]
3.52 to 6.00	Nc1nc2c(c(=O)[nH]1)-c1cccc(F)c1CC2 [3-Amino-7-fluoro-5,6-dihydrobenzo(f)quinazolin-1(2H)-one]
3.52 to 6.00	Nc1nc2ccc3cc([N+](=O)[O-])cc([N+](=O)[O-])c3c2c(=O)[nH]1 [3-Amino-8,10-dinitrobenzo(f)quinazolin-1(2H)-one]
3.52 to 6.00	CC1Cc2nc(N)nc(O)c2-c2ccc(Cl)cc21 (stereo not shown) [3-Amino-8-chloro-5,6-dihydro-6-methylbenzo(f)quinazolin-1(2H)-one]
3.52 to 6.00	Cc1cc2nc(N)[nH]c(=O)c2c2ccc(Cl)cc12 [3-Amino-8-chloro-6-methylbenzo(f)quinazolin-1(2H)-one]
3.52 to 6.00	Nc1nc2ccc3cc(Cl)ccc3c2c(=O)[nH]1 [3-Amino-8-chlorobenzo(f)quinazolin-1(2H)-one]
3.52 to 6.00	CCSc1ccc2ccc3nc(N)nc(O)c3c2c1 [3-Amino-9-(ethylthio)benzo(f)quinazolin-1(2H)-one]
> 6.00	CSc1ccc2ccc3nc(N)nc(O)c3c2c1 [3-Amino-9-(methylthio)benzo(f)quinazolin-1(2H)-one]
> 6.00	CC1Cc2nc(N)nc(O)c2-c2cc(Cl)ccc21 (stereo not shown) [3-Amino-9-chloro-5,6-dihydro-6-methylbenzo(f)quinazolin-1(2H)-one]
3.52 to 6.00	Nc1nc2ccc3cccc([N+](=O)[O-])c3c2c(=O)[nH]1 [3-Amino-10-nitrobenzo(f)quinazolin-1(2H)-one]
3.52 to 6.00	Cc1nc2c(c(=O)[nH]1)-c1cccc(Cl)c1CC2 [7-Chloro-5,6-dihydro-3-methylbenzo(f)quinazolin-1(2H)-one]

SMILES	pIC50
Nc1ccc2c(c1)CCc1nc(N)[nH]c(=O)c1-2 [3,8-Diamino-5,6-dihydrobenzo(f)quinazolin-1(2H)-one]	3.52 to 6.00
Nc1nc2ccc3c(Br)c(N)c(Br)cc3c2c(=O)[nH]1 [3,8-Diamino-7,9-dibromobenzo(f)quinazolin-1(2H)-one]	3.52 to 6.00
CC1Cc2nc(N)nc(O)c2-c2ccccc21 (stereo not shown) [3-Amino-5,6-dihydro-6-methylbenzo(f)quinazolin-1(2H)-one]	3.52 to 6.00
Cc1cc(C)c2c(c1)-c1c(nc(N)[nH]c1=O)CC2 [3-Amino-5,6-dihydro-7,9-dimethylbenzo(f)quinazolin-1(2H)-one]	3.52 to 6.00
Cc1cccc2c1CCc1nc(N)[nH]c(=O)c1-2 [3-Amino-5,6-dihydro-7-methylbenzo(f)quinazolin-1(2H)-one]	3.52 to 6.00
Cc1cc2nc(N)[nH]c(=O)c2c2ccccc12 [3-Amino-6-methylbenzo(f)quinazolin-1(2H)-one]	3.52 to 6.00
Cc1cc(C)c2ccc3nc(N)[nH]c(=O)c3c2c1 [3-Amino-7,9-dimethylbenzo(f)quinazolin-1(2H)-one]	3.52 to 6.00
Nc1nc2c(c(=O)[nH]1)-c1cccc(Br)c1CC2 [3-Amino-7-bromo-5,6-dihydrobenzo(f)quinazolin-1(2H)-one]	3.52 to 6.00
Nc1nc(O)c2c(ccc3cc(Br)c([N+](=O)[O-])cc32)n1 [3-Amino-8-bromo-9-nitrobenzo(f)quinazolin-1(2H)-one]	3.52 to 6.00
Nc1nc2c(c(=O)[nH]1)-c1ccc(Cl)cc1CC2 [3-Amino-8-chloro-5,6-dihydrobenzo(f)quinazolin-1(2H)-one]	3.52 to 6.00

Tested on: SW480 human colon adenocarcinoma
Experiment: Tumor cell culture cytotoxicity (MTT dye reduction), SW480
Conditions: Homo sapiens, SW480, read-out: Tumor Cell Culture Cytotoxicity IC50 SW480, Table C, 5,6-dihydro 3-amino derivatives
Method: SW480 and WiDr colon adenocarcinomas, MCF-7 breast adenocarcinoma, A427 lung carcinoma and MOLT-4 T-cell leukemia were used for the primary screening of compounds. […] MCF-7, A427 and SW480 were grown in the above medium further supplemented with sodium pyruvate.
Cells are seeded into 96-well plates using a Perkin-Elmer Pro/pette. SW480 and A427 were seeded at 8,000 cells per well, MCF-7 at 10,000, Widr at 7500, and MOLT-4 at 12,500 cells per well, all in 150 µl of medium. Prior to the addition of drugs, cultures were incubated for 24 hrs at 37°. Compounds were added at 2×concentration in 150 l of medium and each concentration was assayed in triplicate. If DMSO or ethanol were used to solubilize compounds, appropriate controls were run if the concentration exceeded 0.01%. Cultures were incubated for 72 hours (96 hours for SW480 and MCF-7) in a 37° humidified incubator at 5% CO2. Inhibition of cell growth was measured using the MTT dye reduction assay.
Cell dilutions for a standard curve were prepared from a 72 hour log-phase culture. Serial dilutions were seeded in triplicate in 96-well plates and incubated at 37 degrees for one hour. MTT (3-(4,5-dimethylthiazol-2-yl)-2,5-diphenyltetrazolium bromide) was dissolved in PBS at 5 mg/ml and sonicated for 30 seconds. Using the Perkin Elmer Pro/pette, 200 μl of medium was removed and 100 μl of MTT added to the wells of the standard curve and test plates. Suspension cultures were spun for 5 min at 1000 rpm before removing medium from the wells. Plates were incubated for 1 hour at 370 on a platform shaker. Following this incubation 100 ml of medium was removed from the wells and 100 μl of DMSO added to each well. The plates were sonicated for approximately 10 seconds to solubilize the precipitated formazan dye. The absorbance of each well was measured using a Titertek Multiscan MC microtiter plate reader at 570 nm with a reference wavelength of 750 nm. Data was collected using a Mariachi Seed-2 and stored and analyzed using an IBM-AT and Lotus 1-2-3 software.

SMILES	pIC50
CCN(CC)S(=O)(=O)c1cc2c(cc1Br)CCc1nc(N)[nH]c(=O)c1-2 [3-Amino-8-bromo-N,N-diethyl-1,2,5,6-tetrahydro-1-oxobenzo(f)quinazoline-9-sulfonamide]	5.12

Same assay, conditions: Homo sapiens, SW480, read-out: Tumor Cell Culture Cytotoxicity IC50 SW480, Table D, 5,6-dihydro 3-methyl derivatives

SMILES	pIC50
Cc1nc2c(c(=O)[nH]1)-c1cc(S(=O)(=O)Nc3ccc(F)cc3)ccc1CC2 [4′-Fluoro-1,2,5,6-tetrahydro-3-methyl-1-oxobenzo(f)quinazoline-9-sulfonanilide]	4.60

Same assay, conditions: Homo sapiens, SW480, read-out: Tumor Cell Culture Cytotoxicity IC50 SW480, Table E, fully aromatic 3-methyl derivatives

SMILES	pIC50
Cc1nc2ccc3ccc(CNc4ccc(C(=O)CC(CCC(=O)O)C(=O)O)cc4)cc3c2c(=O)[nH]1 (racemic) [(RS)-2-(2-(4-(((1,2-Dihydro-3-methyl-1-oxobenzo[f]quinazolin-9-yl)methyl)amino)phenyl)-2-oxoethyl)glutaric acid]	7.52
Cc1nc2ccc3ccc(CNc4ccc([N+](=O)[O-])cc4)cc3c2c(=O)[nH]1 [3-Methyl-9-((4-nitroanilino)methyl)benzo)(f)quinazolin-1(2H)-one]	6.40
Cc1nc2ccc3ccc(CNc4ccccc4)cc3c2c(=O)[nH]1 [3-Methyl-9-(anilinomethyl)benzo(f)quinazolin-1(2H)-one]	5.15
Cc1nc2ccc3ccc(Oc4ccc(C#N)cc4)cc3c2c(=O)[nH]1 [4-((1,2-Dihydro-3-methyl-1-oxobenzo[f]quinazolin-9-yl)oxy)benzonitrile]	< 5.00
Cc1nc2ccc3ccc(CNc4ccc(C#N)cc4)cc3c2c(=O)[nH]1 [4-(((1,2-Dihydro-3-methyl-1-oxobenzo(f)quinazolin-9-yl)methyl)amino)benzonitrile]	7.52
Cc1nc2ccc3ccc(CNc4ccc(C(=O)O)cc4)cc3c2c(=O)[nH]1 [4-(((1,2-Dihydro-3-methyl-1-oxobenzo[f]quinazolin-9-yl)methyl)amino)benzoic acid]	5.66

Same assay, conditions: read-out: Tumor Cell Culture Cytotoxicity IC50 SW480; Table C, 5,6-dihydro 3-amino derivatives

SMILES	pIC50
C#CCN(CC#C)S(=O)(=O)c1ccc2c(c1)CCc1nc(N)[nH]c(=O)c1-2 [8-SO2N-(Propargyl)2, 3-Amino-1,2,5,6-tetrahydro-1-oxo-N,N-bis(prop-2-vnyl)benzo[f]quinazoline-8-sulfonamide]	4.22
